We go through three compounds from patent US7687523B2, “3-heteroaryl-3,9-diazabicyclo[3.3.1]nonane derivatives as nicotinic acetylcholine receptor agonists” (Neurosearch A/S, priority 2006, dated 2010).

In general, IC50 refers to the point on the concentration scale where inhibition reaches its midpoint.

Where two headings read alike, the source gives them in different places.

The target in the assay is nAChRs comprised of α4 and β2 subunits (Rattus norvegicus, UniProt P09483+P12390). The assay can be described thus: In vitro inhibition of 3H-cytisine binding. The source says:
In Vitro Inhibition of ^3H-Cytisine Binding
Molecular biology studies have elucidated that there are at least ten nicotinic receptor genes in the brain. The predominant subtype with high affinity for nicotine is comprised of α4 and β2 subunits. nAChRs of the latter type can selectively be labelled by the nicotine agonist ^3H-cytisine.
A standard assay for determining in vitro inhibition of ^3H-cytisine binding is described in e.g. WO 02/096911. When subjected to this test the compounds of the invention show inhibitory activity on the micromolar or sub-micromolar range.

Chain of nAChRs comprised of α4 and β2 subunits (P09483 31-630): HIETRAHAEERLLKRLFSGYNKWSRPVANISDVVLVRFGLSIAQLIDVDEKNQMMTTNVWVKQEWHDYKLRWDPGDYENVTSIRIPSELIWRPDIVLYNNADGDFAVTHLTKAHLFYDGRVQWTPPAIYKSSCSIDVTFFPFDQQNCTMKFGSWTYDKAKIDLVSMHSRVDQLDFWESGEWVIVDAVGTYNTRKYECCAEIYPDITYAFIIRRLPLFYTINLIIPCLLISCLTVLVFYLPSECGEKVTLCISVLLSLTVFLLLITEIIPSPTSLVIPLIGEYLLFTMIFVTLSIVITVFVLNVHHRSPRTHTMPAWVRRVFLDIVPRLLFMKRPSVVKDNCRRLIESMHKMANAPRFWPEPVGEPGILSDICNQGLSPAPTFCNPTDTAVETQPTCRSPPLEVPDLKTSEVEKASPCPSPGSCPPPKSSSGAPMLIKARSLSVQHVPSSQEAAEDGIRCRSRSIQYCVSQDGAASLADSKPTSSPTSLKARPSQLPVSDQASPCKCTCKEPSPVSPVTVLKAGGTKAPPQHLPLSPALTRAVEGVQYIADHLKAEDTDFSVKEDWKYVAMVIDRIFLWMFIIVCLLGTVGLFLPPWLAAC
Chain of nAChRs comprised of α4 and β2 subunits (P12390 25-500): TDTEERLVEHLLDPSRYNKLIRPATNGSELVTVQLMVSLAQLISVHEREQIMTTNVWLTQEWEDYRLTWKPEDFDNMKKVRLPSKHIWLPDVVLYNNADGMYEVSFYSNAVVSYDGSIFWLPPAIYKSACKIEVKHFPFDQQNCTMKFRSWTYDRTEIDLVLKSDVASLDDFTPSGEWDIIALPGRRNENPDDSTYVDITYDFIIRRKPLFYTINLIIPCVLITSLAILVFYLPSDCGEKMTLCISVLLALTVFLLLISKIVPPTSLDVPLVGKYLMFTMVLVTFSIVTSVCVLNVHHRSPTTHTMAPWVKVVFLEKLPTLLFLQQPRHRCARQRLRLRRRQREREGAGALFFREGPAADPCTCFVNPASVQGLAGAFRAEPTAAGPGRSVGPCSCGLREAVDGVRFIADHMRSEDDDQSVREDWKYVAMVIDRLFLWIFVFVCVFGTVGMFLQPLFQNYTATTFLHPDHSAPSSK

`CN1C2CCCC1CN(c1cncc(Cl)c1)C2` [Compound A1, 3-(5-Chloro-pyridin-3-yl)-9-methyl-3,9-diaza-bicyclo[3.3.1]nonane] gave a half-inhibitory concentration (IC50) of 6.3 nM. In turn, `c1cncc(N2CC3CCCC(C2)N3)c1` [Compound B1, 3-Pyridin-3-yl-3,9-diaza-bicyclo[3.3.1]nonane] gave an IC50 of 2.5 nM. In the case of `CN1C2CCCC1CN(c1cccnn1)C2` [Compound C1, 9-Methyl-3-pyridazin-3-yl-3,9-diaza-bicyclo[3.3.1]nonane], the IC50 (3H-cytisine as radioligand, standard assay as described in WO 02/096911, read-out: In vitro Inhibition of 3H-cytisine Binding IC50) is 460 nM.
